Experimental findings from patent US9167821B2 (priority 2009, dated 2015) are described below.

One data set in a line: physchem. As to conditions: pH 2.7, log P (HCOOH).
Description: The determination is effected in the acidic range at pH 2.3 using 0.1% aqueous phosphoric acid and acetonitrile as eluents; linear gradient from 10% acetonitrile to 95% acetonitrile. • ^[b] The LC-MS determination in the acidic range is effected at pH 2.7 using 0.1% aqueous formic acid and acetonitrile (contains 0.1% formic acid) as eluents; linear gradient from 10% acetonitrile to 95% acetonitrile. • ^[c] The LC-MS determination in the neutral range is effected at pH 7.8 using 0.001 molar aqueous ammonium hydrogencarbonate solution and acetonitrile as eluents; linear gradient from 10% acetonitrile to 95% acetonitrile.
The calibration is effected with unbranched alkan-2-ones (having 3 to 16 carbon atoms) with known log P values (determination of the log P values using the retention times by linear interpolation between two successive alkanones).
One may read the chromatographic logP as a lipophilicity value derived from retention on a column. A high value points to a more lipophilic compound. On to `FC1(c2nc(C3=NOC(c4ccccc4)C3)cs2)CCNCC1` (stereo not shown) [XII-1, 4-fluoro-4-[4-(5-phenyl-4,5-dihydro-1,2-oxazol-3-yl)-1,3-thiazol-2-yl]piperidinium chloride], for which the chromatographic logP turned out to be 1.17. In turn, `O=C(O)c1ccccc1C1CC(c2csc(C3CCN(C(=O)Cn4nc(C(F)F)cc4C(F)F)CC3)n2)=NO1` (stereo not shown) [2-{3-[2-(1-{[3,5-Bis(difluoromethyl)-1H-pyrazol-1-yl]acetyl}piperidin-4-yl)-1,3-thiazol-4-yl]-4,5-dihydro-1,2-oxazol-5-yl}benzoic acid] displayed a chromatographic logP of 2.63.

For the molecule `CC(C)(C)OC(=O)N1CCC(c2nc(C3=NOC(c4ccccc4C=O)C3)cs2)CC1` (stereo not shown) [X-a-3, tert-Butyl 4-{4-[5-(2-formylphenyl)-4,5-dihydro-1,2-oxazol-3-yl]-1,3-thiazol-2-yl}piperidine-1-carboxylate], the chromatographic logP was determined as 3.76. On to `CC(C)(C)OC(=O)N1CCC(F)(c2nc(C=O)cs2)CC1` [VI-1, tert-Butyl 4-fluoro-4-(4-formyl-1,3-thiazol-2-yl)piperidine-1-carboxylate], for which the chromatographic logP turned out to be 2.8. The same measure, in the same setting: next, `CC(C)(C)OC(=O)N1CCC(c2nc(C3=NOC(c4ccccc4C(=O)O)C3)cs2)CC1` (stereo not shown) [X-a-9, 2-(3-{2-[1-(tert-butoxycarbonyl)piperidin-4-yl]-1,3-thiazol-4-yl}-4,5-dihydro-1,2-oxazol-5-yl)benzoic acid]: 3.18.

The same data set, now with this note: pH 2.7, log P (pH2.7).
For `c1ccc(C2CC(c3csc(C4CCNCC4)n3)=NO2)c(OCC2CCCCC2)c1` (stereo not shown) [XII-7, 4-(4-{5-[2-(Cyclohexylmethoxy)phenyl]-4,5-dihydro-1,2-oxazol-3-yl}-1,3-thiazol-2-yl)piperidinium chloride], the chromatographic logP was 1.9.

The data set is the same for the next values; noted with them: pH 2.7, logp [b].
Take `C=CCOc1cccc(Cl)c1C1CC(c2csc(C3CCN(C(=O)Cn4nc(C(F)F)cc4C(F)F)CC3)n2)=NO1` (stereo not shown) [I-51, 1-[4-(4-{5-[2-(Allyloxy)-6-chlorophenyl]-4,5-dihydro-1,2-oxazol-3-yl}-1,3-thiazol-2-yl)piperidin-1-yl]-2-[3,5-bis(difluoromethyl)-1H-pyrazol-1-yl]ethanone]: the chromatographic logP stood at 3.82. On the same count and under the same terms, under `C#Cc1ccccc1C1CC(c2csc(C3CCN(C(=O)Cn4nc(C(F)F)cc4C(F)F)CC3)n2)=NO1` (stereo not shown) [I-38, 2-[3,5-Bis(difluoromethyl)-1H-pyrazol-1-yl]-1-(4-{4-[5-(2-ethynylphenyl)-4,5-dihydro-1,2-oxazol-3-yl]-1,3-thiazol-2-yl}piperidin-1-yl)ethanone] stands 3.36; under `C=C(C)COc1ccccc1C1CC(c2csc(C3CCN(C(=O)Cn4nc(C(F)F)cc4C(F)F)CC3)n2)=NO1` (stereo not shown) [I-18, 2-[3,5-bis(difluoromethyl)-1H-pyrazol-1-yl]-1-{4-[4-(5-{2-[(2-methylprop-2-en-1-yl)oxy]phenyl}-4,5-dihydro-1,2-oxazol-3-yl)-1,3-thiazol-2-yl]piperidin-1-yl}ethanone], 3.96; under `COCCOCc1ccccc1C1CC(c2csc(C3CCN(C(=O)Cn4nc(C(F)F)cc4C(F)F)CC3)n2)=NO1` (stereo not shown) [I-11, 2-[3,5-Bis(difluoromethyl)-1H-pyrazol-1-yl]-1-{4-[4-(5-{2-[(2-methoxyethoxy)methyl]phenyl}-4,5-dihydro-1,2-oxazol-3-yl)-1,3-thiazol-2-yl]piperidin-1-yl}ethanone], 3.21. For `O=C(NC1CC1)c1ccccc1C1CC(c2csc(C3CCN(C(=O)Cn4nc(C(F)F)cc4C(F)F)CC3)n2)=NO1` (stereo not shown) [I-27, 2-{3-[2-(1-{[3,5-Bis(difluoromethyl)-1H-pyrazol-1-yl]acetyl}piperidin-4-yl)-1,3-thiazol-4-yl]-4,5-dihydro-1,2-oxazol-5-yl}-N-cyclopropylbenzamide], the chromatographic logP turned out to be 2.64.

Staying with this data set, now noted: pH 7.8, logp [c].
`C=CCOc1cccc(Cl)c1C1CC(c2csc(C3CCN(C(=O)Cn4nc(C(F)F)cc4C(F)F)CC3)n2)=NO1` (stereo not shown) [I-51, 1-[4-(4-{5-[2-(Allyloxy)-6-chlorophenyl]-4,5-dihydro-1,2-oxazol-3-yl}-1,3-thiazol-2-yl)piperidin-1-yl]-2-[3,5-bis(difluoromethyl)-1H-pyrazol-1-yl]ethanone] came in with a chromatographic logP of 3.71. The molecule `C=C(C)COc1ccccc1C1CC(c2csc(C3CCN(C(=O)Cn4nc(C(F)F)cc4C(F)F)CC3)n2)=NO1` (stereo not shown) [I-18, 2-[3,5-bis(difluoromethyl)-1H-pyrazol-1-yl]-1-{4-[4-(5-{2-[(2-methylprop-2-en-1-yl)oxy]phenyl}-4,5-dihydro-1,2-oxazol-3-yl)-1,3-thiazol-2-yl]piperidin-1-yl}ethanone] gave a chromatographic logP of 3.92.
